Measured values published in patent US20220133738A1, “GENOTYPE AND DOSE-DEPENDENT RESPONSE TO AN ASBTI IN PATIENTS WITH BILE SALT EXPORT PUMP DEFICIENCY” (MIRUM PHARMACEUTICALS, INC., priority 2019, published 2022).
“And” between values parts separate entries of the source, which are not always exact repeats. Equal entries are not always repeated.

Columns and labels:
[1] = test system: children with progressive familial intrahepatic cholestasis (PFIC); assay: INDIGO phase 2 open-label efficacy and safety study of maralixibat in children with PFIC; type: in vivo, human
Text: The HRQoL used was the […] QUALITY OF LIFE INVENTORY (PedsQL).

[2] = test system: children with Alagille syndrome (ALGS); assay: ICONIC phase 2b randomized placebo-controlled drug-withdrawal study with long-term extension of maralixibat in Alagille syndrome; conditions: for C4, mean: baseline 7.4; for Serum cholesterol, mean: baseline 414.3; for ItchRO(Obs) Weekly Morning Average Score, Average Change from Baseline: week 48
Procedure: Children aged 1-18 years with a diagnosis of ALGS and evidence of cholestasis were eligible to enroll in the ICONIC clinical study, see Tables 12-14. During a long-term extension, participants with sBA levels above the upper limit of normal and/or an ITCHRO(OBS) score >1.5 were eligible for the 400 μg/kg BID dose (all participants received the 400 μg/kg BID dose). Inclusion criteria for the ICONIC study included having cholestasis, which was defined as at least one of 1) sBA concentration (total sBA) >3× the upper limit of normal, 2) serum conjugated bilirubin concentration >1 mg/dL, 3) fat-soluble vitamin deficiency not otherwise explained, 4) serum gamma-glutamyl transferase concentration >3× the upper limit of normal, and 3) intractable pruritus explainable only by liver disease. Inclusion criteria also included having significant pruritus, which was defined as an average daily score of >2 on the ITCHRO(OBS) scale for 2 consecutive weeks (0=no pruritus; 4=most severe pruritus). Exclusion criteria included having surgically disrupted enterohepatic circulation, a liver transplant, decompensated cirrhosis, or having any liver disease other than ALGS.
sBA responders were defined as those patients achieving ≥50% reduction from baseline in sBA at week 12 or 18. ITCHRO responders were defined as those patients achieving at least a 1-point reduction from Baseline in weekly morning ITCHRO(OBS) score at week 12 or 18.
In the open label extension, the effect of higher doses was explored by increasing dosage to a maximum of 400 μg/kg BID in eligible participants.
Efficacy assessments were based on changes from baseline in sBA concentration, weekly average ITCHRO(OBS) scores (0, none; 4, most severe), CSS score (0, none; 4 most severe), and Clinician Xanthoma Scale score (0, none; 4, disabling). […] During the long-term extension, efficacy assessments were conducted every 12 weeks.
sBA were measured using a fully validated liquid chromatography-electrospray ionization-mass electrospray (LC-ESI-MS) method using stable-isotope dilution analysis to measure serum concentrations of principal bile acids (cholic, chenodeoxycholic, ursodeoxycholic, deoxycholic acid, lithocholic, and their corresponding glycine and taurine conjugates). […] Calibration standards of individual bile acids were in the range of 50-25,000 ng/mL and Quality Control samples were prepared at concentrations of 100, 500, 1000, 2500, and 20000 ng/mL. The intra- and inter-assay imprecision of the method for individual bile acids measured was within the accepted GLP quality assurance guidelines of <15% coefficient of variance for these QC samples. The lower limit of quantification of the assay was set at 100 ng/mL and the imprecision at this concentration was <20%. The limit of detection of the assay was 5 ng/mL. Total sBA is represented by the sum of the individual bile acid species measured.

[3] = Withdrawal - Week 22, maralixibat group
[4] = individual subjects, one line per Subject ID of Table 18
[5] = individual subjects, one line per Subject ID of Table 19
[6] = sBA Normalization (<8.5 μmol/L)

## CCCCC1(CCCC)CS(=O)(=O)c2ccc(N(C)C)cc2[C@@H](c2ccc(OCc3ccc(C[N+]45CCN(CC4)CC5)cc3)cc2)[C@H]1O [maralixibat]
[1]; patients having an ABCB11 gene with a truncating mutation
  responders in long-term extension: no patients
[1]; patients with non-truncating BSEP mutations, FIG. 6
  patients with ≥1.0 pt. reduction in ITCHRO(OBS) score: 10/19
[1]; responders (n = 6) by week 48
  sBA levels Normalized (±≤8.5 μmol/L), n: 4
[1]; subject 016054, moderate PFIC 2, wrapped cell r43-r46 reads 'No response until 560 reached'
  Response: No
[1]; week 48
  PedsQL total score, change from baseline to week 48, mean: +8.2
[2]; 400 μg/kg BID relative to 400 μg/kg QD
  sBA, pruritus, and growth after the higher daily dose: further improvements
[2]; 400 μg/kg BID versus 400 μg/kg QD, FIGS. 35-36
  weight Z-scores: dose-dependent increase
[2]; ICONIC participants, FIGS. 33-34, SE 0.1
  Height Z-score, increase from baseline: 0.5
[2]; Open-label Week 18
  ItchRO (Obs) responders, Decrease from baseline ≥1: 67.7%
  ItchRO (Obs) responders, Decrease from baseline ≥1.25: 58.1%
  ItchRO (Obs) responders, Decrease from baseline ≥1.5: 51.6%
[2]; Open-label Week 48
  ItchRO (Obs) responders, Decrease from baseline ≥1: 72.4%
  ItchRO (Obs) responders, Decrease from baseline ≥1.25: 58.6%
  ItchRO (Obs) responders, Decrease from baseline ≥1.5: 51.7%
[2]; Week 48, n = 15
  C4, mean: 20.4 ng/mL
  Serum cholesterol, mean: 340.3 mg/dL
[2]; Week 191, n = 15
  C4, mean: 30.4 ng/mL
  Serum cholesterol, mean: 277.5 mg/dL
[2]; [3]
  ItchRO (Obs) responders, Decrease from baseline ≥1: 53.8%
  ItchRO (Obs) responders, Decrease from baseline ≥1.25: 46.2%
  ItchRO (Obs) responders, Decrease from baseline ≥1.5: 23.1%
[2]; after 98 weeks
  study days across participants with minimal or no pruritus (ITCHRO(OBS)≤1): over 89%
[2]; all participants by week 48 (p<0.01)
  Clinician xanthoma scale scores: improved significantly
[2]; at 191 weeks, long-term extension
  sBA levels, reduction from baseline: about 57%
[2]; at 191 weeks, SE 0.2
  ITCHRO(OBS) score, mean change from baseline: −2.5
[2]; at 191 weeks, SE 0.4
  CSS score, mean reduction: 2.4 points
[2]; at 193 weeks
  ITCHRO(OBS) final score: about 0.33
  ITCHRO(OBS) score, mean reduction: over 2 points
[2]; by week 48, all participants
  CSS scores, average decrease: over 1.5 points
[2]; by week 191, SE 0.3
  Clinician Xanthoma Score, reduction from baseline: 0.7 points
[2]; by week 193
  ITCHRO(OBS) scores, average decrease relative to baseline: over 1.5 points
[2]; core study and extension (p<0.01)
  PedsQL Multidimensional Fatigue Scale scores: Improvements
[2]; core study and extension, over three years
  tolerability: well tolerated
[2]; doses up, treatment duration up to 4 years
  tolerability: generally well tolerated
[2]; first 18 weeks, 400 μg/kg QD
  sBA concentration, decrease: 31%
[2]; first 18 weeks, 400 μg/kg QD, SE 0.2
  ITCHRO(OBS) scores, mean change from baseline: −1.7
[2]; [4]
  Change in ItchRO from Baseline to Week 48 (ITCHRO(OBS) weekly morning average score): −0.12 and 0.49 and −0.45 and 1.29 and −3.86 and 0.00 and −2.57 and −0.86 (2×) and −0.71 (2×) and −0.00 (2×) and −0.29 and −0.67 and −0.14 and −0.03 and −3.29 (2×) and −3.43 and −2.50 and −2.71 (2×) and −3.50 and −2.29 and −0.17 and −0.43 and −0.83
  Serum Bile Acid, Change from Baseline to Week 48: −56.4 μmol/L and −166.3 μmol/L and −281.4 μmol/L and 166.4 μmol/L and −121.1 μmol/L and 4.3 μmol/L (2×) and −251.0 μmol/L and 3.3 μmol/L and −27.3 μmol/L and −155.5 μmol/L and −240.2 μmol/L and 9.0 μmol/L and 143.1 μmol/L and −112.2 μmol/L and 16.4 μmol/L and −10.9 μmol/L and −16.9 μmol/L and 54.5 μmol/L and −620.4 μmol/L and −23.9 μmol/L and −377.3 μmol/L and −205.9 μmol/L and −270.4 μmol/L and 25.5 μmol/L and −203.6 μmol/L and −96.4 μmol/L and −33.9 μmol/L
  Serum Bile Acid, Week 48: 22.9 µmol/L and 131.8 µmol/L and 98.5 µmol/L and 578.1 µmol/L and 20.8 µmol/L and 333.0 µmol/L and 119.6 µmol/L and 117.7 µmol/L and 492.6 µmol/L and 427.9 µmol/L and 199.8 µmol/L and 29.2 µmol/L and 891.6 µmol/L and 163.4 µmol/L and 60.2 µmol/L and 12.0 µmol/L and 23.6 µmol/L and 126.1 µmol/L and 37.0 µmol/L and 7.0 µmol/L and 101.9 µmol/L and 293.3 µmol/L and 65.0 µmol/L and 110.9 µmol/L and 35.8 µmol/L and 208.0 µmol/L and 55.8 µmol/L and 15.6 µmol/L
[2]; [5]
  ItchRO(Obs) Weekly Morning Average Score, Change from Baseline to Week 48: −0.12 and 0.49 and −0.45 and 1.29 and −3.86 and 0.00 and −2.57 and −0.86 (2×) and −0.71 (2×) and −0.00 (2×) and −0.29 and −0.67 and −0.14 and −0.03 and −3.29 (2×) and −3.43 and −2.50 and −2.71 (2×) and −3.50 and −2.29 and −0.17 and −0.43 and −0.83
  ItchRO(Obs) Weekly Morning Average Score, Week 48: 2.71 and 3.20 and 1.83 and 3.71 and 0.14 and 1.86 and 0.71 and 1.14 (2×) and 0.29 (2×) and 2.00 (2×) and 1.71 (2×) and 1.00 and 1.40 and 0.00 (7×) and 1.43 and 1.57 and 3.50 and 2.17
[2]; randomized withdrawal (week 18-22), SE 48.0
  sBA levels, least squares mean difference maralixibat vs placebo: −114.0
[2]; randomized withdrawal, SE 0.3
  ITCHRO(OBS), LS mean difference maralixibat vs placebo: −1.5
[2]; [6]
  ItchRO(Obs) Weekly Morning Average Score, Week 48 Average Score: 0.00
  participants meeting sBA Response Definition, Week 48 (N = 28), %: (3.6%)
  ItchRO(Obs) Weekly Morning Average Score, Average Change from Baseline: −3.50
[2]; sBA ≥50% Reduction
  ItchRO(Obs) Weekly Morning Average Score, Week 48 Average Score: 1.07
  participants meeting sBA Response Definition, Week 48 (N = 28), %: (46.4%)
  ItchRO(Obs) Weekly Morning Average Score, Average Change from Baseline: −1.86
[2]; sBA ≥60% Reduction
  ItchRO(Obs) Weekly Morning Average Score, Week 48 Average Score: 0.82
  participants meeting sBA Response Definition, Week 48 (N = 28), %: (39.3%)
  ItchRO(Obs) Weekly Morning Average Score, Average Change from Baseline: −2.12
[2]; sBA ≥70% Reduction
  ItchRO(Obs) Weekly Morning Average Score, Week 48 Average Score: 0.62
  participants meeting sBA Response Definition, Week 48 (N = 28), %: (28.6%)
  ItchRO(Obs) Weekly Morning Average Score, Average Change from Baseline: −2.31
[2]; sBA ≥80% Reduction
  ItchRO(Obs) Weekly Morning Average Score, Week 48 Average Score: 0.11
  participants meeting sBA Response Definition, Week 48 (N = 28), %: (14.3%)
  ItchRO(Obs) Weekly Morning Average Score, Average Change from Baseline: −2.79
[2]; sBA ≥90% Reduction
  ItchRO(Obs) Weekly Morning Average Score, Week 48 Average Score: 0.00
  participants meeting sBA Response Definition, Week 48 (N = 28), %: (3.6%)
  ItchRO(Obs) Weekly Morning Average Score, Average Change from Baseline: −2.71
[2]; week 48, all participants
  CSS final average score: about 1.5
